Legend:
recombinant human MGAT2 = recombinant human MGAT2 (Homo sapiens (Human), UniProt Q3SYC2); assay: Measurement of human MGAT2 inhibitory activity; assay type: biochemical; conditions: concentration exhibiting 50% enzyme inhibition; recombinant human MGAT2, 2-Oleoylglycerol/Oleoyl-CoA
In short: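 Membrane fraction of baculovirus-infected Sf-9 cells expressing N-terminally Flag-tagged full-length human MGAT2, in 100 mmol/L phosphate pH 7.4 with 2 mmol/L DTT. The substrate solution held 30 μmol/L 2-oleoylglycerol and 10 μmol/L oleoyl-CoA. After 1 h at room temperature, diolein/diolein-d5 ratio was read by ESI Q-TOF MS and % inhibition derived against enzyme and no-enzyme controls.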

[1] = Metabolism stability test (human liver microsomes); assay type: in vitro ADME; conditions: compound concentration 0.5 μmol/L, 37° C., 30 minutes, NADPH
Procedure: Using commercially available pooled human hepatic microsomes, the compound of the present invention was reacted for a constant time, a remaining rate was calculated by comparing a reacted sample and an unreacted sample, thereby, a degree of metabolism of the compound of the present invention in liver was assessed.
A reaction was performed (oxidative reaction) at 37° C. for 0 minute or 30 minutes in the presence of 1 mmol/L NADPH in 0.2 mL of a buffer (50 mmol/L Tris-HCl pH 7.4, 150 mmol/L potassium chloride, 10 mmol/L magnesium chloride) containing 0.5 mg protein/mL of human liver microsomes. After the reaction, 50 μL of the reaction solution was added to 100 μL of a methanol/acetonitrile=1/1 (v/v) solution, mixed and centrifuged at 3000 rpm for 15 minutes. The compound of the present invention in the supernatant was quantified by LC/MS/MS, and a remaining amount of the compound of the present invention after the reaction was calculated, letting a compound amount at 0 minute reaction time to be 100%.

[2] = Solubility test (1% DMSO addition, pH 6.8 artificial intestinal juice); assay type: physicochemical; conditions: kinetic from dmso stock, 16 hours at 25° C.
Procedure: The solubility of the compound of the present invention was determined under 1% DMSO addition conditions. 10 mmol/L solution of the compound was prepared with DMSO, and 6 μL of the solution of the compound of the present invention was added to 594 μL of pH 6.8 artificial intestinal juice (118 mL of 0.2 mol/L NaOH test solution and water were added to 250 mL of 0.2 mol/L potassium dihydrogen phosphate test solution to reach 1000 mL). The mixture was left standing for 16 hours at 25° C., and the mixture was vacuum-filtered. The filtrate was two-fold diluted with methanol/water=1/1 (V/V), and the compound concentration in the filtrate was measured with HPLC or LC/MS/MS by the absolute calibration method. The dilution concentration and the dilution solvent were changed as necessary.

CYP2D6 = CYP2D6 (Homo sapiens (Human), UniProt P10635); assay: CYP inhibition test, CYP2D6; assay type: in vitro ADME; conditions: pooled human liver microsomes; dextromethorphan O-demethylation; given as 'five kinds'
Text: (§1) Using commercially available pooled human hepatic microsome, and employing, as markers, 7-ethoxyresorufin O-deethylation (CYP1A2), tolbutamide methyl-hydroxylation (CYP2C9), mephenytoin 4'-hydroxylation (CYP2C19), dextromethorphan 0-demethylation (CYP2D6), and terfenadine hydroxylation (CYP3A4) as typical substrate metabolism reactions of human main five CYP enzyme forms (CYP1A2, 2C9, 2C19, 2D6, 3A4), an inhibitory degree of each metabolite production amount by the compound of the present invention was assessed. The reaction conditions are as follows: substrate, 0.5 μmol/L ethoxyresorufin (CYP1A2), 100 μmol/L tolbutamide (CYP2C9), 50 μmol/L S-mephenitoin (CYP2C19), 5 μmol/L dextromethorphan (CYP2D6), 1 μmol/L terfenedine (CYP3A4); reaction time, 15 minutes; reaction temperature, 37° C.; enzyme, pooled human liver microsomes 0.2 mg protein/mL; concentrations of the compound of the present invention, 1, 5, 10, 20 μmol/L (four points). As a reaction solution, each five kinds of substrates, human liver microsomes, or compound of the present invention in 50 mmol/L Hepes buffer were added to a 96-well plate at the composition as described above, and NADPH, as a cofactor was added to initiate metabolism reactions. After the incubation at 37° C. for 15 minutes, a methanol/acetonitrile=1/[…]) solution was added to stop the reaction. After the centrifugation at 3000 rpm for 15 minutes, resorufin (CYP1A2 metabolite) in the supernatant was quantified by a fluorescent multilabel counter or LC/MS/MS, and tolbutamide hydroxide (CYP2C9 metabolite), mephenytoin 4' hydroxide (CYP2C19 metabolite), dextrorphan (CYP2D6 metabolite), and terfenadine alcohol (CYP3A4 metabolite) were quantified by LC/MS/MS. Addition of only DMSO being a solvent dissolving a drug to a reaction system was adopted as a control (100%). Remaining activity (%) was calculated. IC50 was calculated by reverse presumption by a logistic model using the concentration and an inhibition rate.

CYP1A2 = CYP1A2 (Homo sapiens (Human), UniProt P05177); assay: CYP inhibition test, CYP1A2; assay type: in vitro ADME; conditions: pooled human liver microsomes; 7-ethoxyresorufin O-deethylation; given as 'five kinds'
Text: as §1

CYP2C9 = CYP2C9 (Homo sapiens (Human), UniProt P11712); assay: CYP inhibition test, CYP2C9; assay type: in vitro ADME; conditions: pooled human liver microsomes; tolbutamide methyl-hydroxylation; given as 'five kinds'
Text: as §1

CYP3A4 [3] = biological target: T1, CYP3A4 (Homo sapiens (Human), UniProt P08684); assay: CYP inhibition test, CYP3A4; assay type: in vitro ADME; conditions: pooled human liver microsomes; terfenadine hydroxylation; given as 'five kinds'
Text: as §1

CYP2C19 = CYP2C19 (Homo sapiens (Human), UniProt P33261); assay: CYP inhibition test, CYP2C19; assay type: in vitro ADME; conditions: pooled human liver microsomes; mephenytoin 4′-hydroxylation; given as 'five kinds'
Text: as §1

CYP3A4 [4] = biological target: T1, CYP3A4; assay: CYP3A4 (MDZ) MBI test; assay type: in vitro ADME; conditions: pooled human liver microsomes; midazolam 1-hydroxylation; preincubation 0 vs 30 min
Procedure: CYP3A4 (MDZ) MBI test is a test of investigating mechanism based inhibition (MBI) potential on CYP3A4 by the enhancement of inhibitory degree of a metabolic reaction caused by the compound of the present invention. CYP3A4 inhibition was evaluated using pooled human liver microsomes by 1-hydroxylation reaction of midazolam (MDZ) as a marker reaction.
The reaction conditions are as follows: substrate, 10 μmol/L MDZ; pre-reaction time, 0 or 30 minutes; substrate reaction time, 2 minutes; reaction temperature, 37° C.; protein content of pooled human liver microsomes, at pre-reaction time 0.5 mg/mL, at reaction time 0.05 mg/mL (at 10-fold dilution); concentrations of the compound of the present invention, at pre-reaction time 1, 5, 10, 20 μmol/L (four points).
Pooled human liver microsomes and a solution of the compound of the present invention in K-Pi buffer (pH 7.4) as a pre-reaction solution were added to a 96-well plate at the composition of the pre-reaction. A part of pre-reaction solution was transferred to another 96-well plate, and 1/10 diluted by K-Pi buffer containing a substrate. NADPH as a co-factor was added to initiate a reaction as a marker reaction (without pre-reaction). After a predetermined time of a reaction, methanol/acetonitrile=1/1 (V/V) solution was added to stop the reaction. In addition, NADPH was added to a remaining pre-reaction solution to initiate a pre-reaction (with pre-reaction). After a predetermined time of a pre-reaction, a part was transferred to another plate, and 1/10 diluted by K-Pi buffer containing a substrate to initiate a reaction as a marker reaction. After a predetermined time of a reaction, methanol/acetonitrile=1/1 (V/V) solution was added in order to stop the reaction. The plate on which each index reaction had been performed was centrifuged at 3000 rpm for 15 minutes, and thereafter 1-hydroxylated midazolam in the supernatant was quantified by LC/MS/MS.
The sample adding DMSO as a solvent to a reaction system instead of a solution dissolving the compound of the present invention was adopted as a control (100%). Remaining activity (%) was calculated at each concentration of the compound of the present invention compared to a control, and IC value was calculated by reverse-presumption by a logistic model using a concentration and an inhibition rate. IC at Preincubation 0 min/IC at Preincubation 30 min was defined as a value of Shifted IC, and a case that Shifted IC was 1.5 or more was regarded as Positive, and a case that Shifted IC was 1.0 or less was regarded as Negative.

hERG (IKr) = hERG (IKr) (Homo sapiens (Human), UniProt Q12809); assay: hERG test; assay type: cell-based; conditions: CHO cells expressing hERG channel, pH 7.4, 10 μmol/L of test compound, read-out: % inhibition of hERG tail peak current (IKr)
Text: For the purpose of assessing risk of an electrocardiogram QT interval prolongation of the compound of the present invention, effects of the compound of the present invention on delayed rectifier K^+ current (IKr), which plays an important role in the ventricular repolarization process, was studied using CHO cells expressing human ether-a-go-go related gene (hERG) channel.
After a cell was retained at a membrane potential of −80 mV by whole cell patch clamp method using an automated patch clamp system (QPatch; Sophion BIoscience A/S), IKr induced by application of a leak potential of −50 mV followed by depolarization pulse stimulation at +20 mV for 2 seconds and, further, repolarization pulse stimulation at −50 mV for 2 seconds, was recorded. […] From the recording IKr, an absolute value of the tail peak current was measured based on the current value at the resting membrane potential using analysis software (Falster Patch; Sophion Bioscience A/S). Further, the % inhibition of tail peak current for the compound of the present invention relative to the tail peak current after application of the vehicle is calculated to assess influence of the compound of the present invention on IKr.

Chain of CYP2C9 (P11712 whole entry): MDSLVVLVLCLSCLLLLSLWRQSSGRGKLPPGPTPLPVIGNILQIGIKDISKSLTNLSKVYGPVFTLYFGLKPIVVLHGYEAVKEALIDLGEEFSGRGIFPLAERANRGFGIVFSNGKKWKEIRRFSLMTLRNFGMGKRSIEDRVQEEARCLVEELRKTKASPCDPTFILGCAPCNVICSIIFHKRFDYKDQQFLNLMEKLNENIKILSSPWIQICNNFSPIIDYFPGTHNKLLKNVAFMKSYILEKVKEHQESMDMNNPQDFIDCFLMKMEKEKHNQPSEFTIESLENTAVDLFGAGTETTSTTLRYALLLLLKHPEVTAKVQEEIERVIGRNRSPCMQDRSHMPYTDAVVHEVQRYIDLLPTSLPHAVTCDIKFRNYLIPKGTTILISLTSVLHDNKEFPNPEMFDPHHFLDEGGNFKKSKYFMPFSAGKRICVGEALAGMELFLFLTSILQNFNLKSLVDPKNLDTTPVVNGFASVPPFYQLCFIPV
Chain of hERG (IKr) (Q12809 whole entry): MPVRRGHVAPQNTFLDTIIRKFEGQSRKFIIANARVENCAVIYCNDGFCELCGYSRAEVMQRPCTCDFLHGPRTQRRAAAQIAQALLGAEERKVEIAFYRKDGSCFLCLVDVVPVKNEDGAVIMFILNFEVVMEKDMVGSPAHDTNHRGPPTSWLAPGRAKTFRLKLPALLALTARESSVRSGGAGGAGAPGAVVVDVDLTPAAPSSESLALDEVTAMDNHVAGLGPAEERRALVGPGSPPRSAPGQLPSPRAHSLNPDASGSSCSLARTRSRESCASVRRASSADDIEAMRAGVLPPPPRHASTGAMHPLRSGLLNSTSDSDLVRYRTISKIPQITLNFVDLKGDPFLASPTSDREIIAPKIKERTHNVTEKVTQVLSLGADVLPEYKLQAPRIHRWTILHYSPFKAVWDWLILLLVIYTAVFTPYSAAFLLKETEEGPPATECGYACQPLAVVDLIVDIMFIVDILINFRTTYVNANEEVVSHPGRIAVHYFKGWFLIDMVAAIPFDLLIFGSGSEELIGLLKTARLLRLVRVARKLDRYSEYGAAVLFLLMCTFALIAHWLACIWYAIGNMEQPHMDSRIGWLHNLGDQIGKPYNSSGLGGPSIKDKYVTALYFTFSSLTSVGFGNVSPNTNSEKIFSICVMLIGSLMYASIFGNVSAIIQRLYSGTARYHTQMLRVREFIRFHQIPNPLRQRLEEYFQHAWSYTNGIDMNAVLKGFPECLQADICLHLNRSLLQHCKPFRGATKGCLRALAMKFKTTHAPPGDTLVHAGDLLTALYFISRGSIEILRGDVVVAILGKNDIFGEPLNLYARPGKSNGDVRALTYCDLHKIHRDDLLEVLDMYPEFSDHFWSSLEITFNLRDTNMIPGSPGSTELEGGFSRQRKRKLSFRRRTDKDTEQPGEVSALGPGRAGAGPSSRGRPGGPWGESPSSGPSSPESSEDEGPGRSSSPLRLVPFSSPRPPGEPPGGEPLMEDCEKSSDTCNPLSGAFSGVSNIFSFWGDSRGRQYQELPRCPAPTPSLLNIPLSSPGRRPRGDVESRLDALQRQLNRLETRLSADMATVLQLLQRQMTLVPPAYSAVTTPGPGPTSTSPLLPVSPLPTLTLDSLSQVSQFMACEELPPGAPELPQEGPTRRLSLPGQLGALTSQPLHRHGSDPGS
T1 sequence (P08684 whole entry): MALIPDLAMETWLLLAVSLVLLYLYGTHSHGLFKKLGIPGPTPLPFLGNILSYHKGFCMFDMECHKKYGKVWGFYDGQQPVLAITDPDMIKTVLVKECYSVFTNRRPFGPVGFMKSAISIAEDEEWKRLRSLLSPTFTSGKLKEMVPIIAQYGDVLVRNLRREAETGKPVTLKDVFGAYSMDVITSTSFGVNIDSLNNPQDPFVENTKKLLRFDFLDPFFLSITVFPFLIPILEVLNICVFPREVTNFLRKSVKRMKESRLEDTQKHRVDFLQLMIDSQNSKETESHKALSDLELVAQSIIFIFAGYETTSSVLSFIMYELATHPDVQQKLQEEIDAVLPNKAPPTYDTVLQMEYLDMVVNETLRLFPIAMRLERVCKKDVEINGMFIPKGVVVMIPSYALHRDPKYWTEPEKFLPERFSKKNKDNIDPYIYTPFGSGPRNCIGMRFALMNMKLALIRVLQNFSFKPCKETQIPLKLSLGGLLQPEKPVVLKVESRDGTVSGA
Chain of CYP2D6 (P10635 whole entry): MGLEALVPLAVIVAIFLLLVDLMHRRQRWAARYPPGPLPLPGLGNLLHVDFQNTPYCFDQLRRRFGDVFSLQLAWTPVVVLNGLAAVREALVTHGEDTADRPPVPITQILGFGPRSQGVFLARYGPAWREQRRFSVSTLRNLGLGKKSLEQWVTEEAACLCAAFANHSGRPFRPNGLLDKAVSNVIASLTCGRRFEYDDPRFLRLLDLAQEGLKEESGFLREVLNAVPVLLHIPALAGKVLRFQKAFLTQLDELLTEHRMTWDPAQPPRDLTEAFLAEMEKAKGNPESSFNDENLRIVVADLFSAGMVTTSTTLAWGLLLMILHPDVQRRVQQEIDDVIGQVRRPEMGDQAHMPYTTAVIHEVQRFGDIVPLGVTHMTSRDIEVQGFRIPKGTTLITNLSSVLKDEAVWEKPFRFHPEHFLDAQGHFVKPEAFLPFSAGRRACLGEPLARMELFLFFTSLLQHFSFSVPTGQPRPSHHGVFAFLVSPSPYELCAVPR
Chain of CYP2C19 (P33261 whole entry): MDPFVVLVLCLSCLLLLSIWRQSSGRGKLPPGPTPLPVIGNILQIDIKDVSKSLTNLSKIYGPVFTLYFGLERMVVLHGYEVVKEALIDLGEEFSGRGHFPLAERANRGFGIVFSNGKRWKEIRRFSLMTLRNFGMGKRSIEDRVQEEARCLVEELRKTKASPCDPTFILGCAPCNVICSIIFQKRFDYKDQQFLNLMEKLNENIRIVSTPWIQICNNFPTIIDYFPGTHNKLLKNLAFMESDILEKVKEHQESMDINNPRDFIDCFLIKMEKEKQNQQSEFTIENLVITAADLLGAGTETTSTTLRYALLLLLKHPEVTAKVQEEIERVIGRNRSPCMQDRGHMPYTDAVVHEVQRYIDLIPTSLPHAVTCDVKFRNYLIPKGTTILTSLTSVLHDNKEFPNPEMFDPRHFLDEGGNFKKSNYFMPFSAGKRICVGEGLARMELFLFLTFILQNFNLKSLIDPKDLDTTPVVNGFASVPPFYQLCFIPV
Chain of CYP1A2 (P05177 whole entry): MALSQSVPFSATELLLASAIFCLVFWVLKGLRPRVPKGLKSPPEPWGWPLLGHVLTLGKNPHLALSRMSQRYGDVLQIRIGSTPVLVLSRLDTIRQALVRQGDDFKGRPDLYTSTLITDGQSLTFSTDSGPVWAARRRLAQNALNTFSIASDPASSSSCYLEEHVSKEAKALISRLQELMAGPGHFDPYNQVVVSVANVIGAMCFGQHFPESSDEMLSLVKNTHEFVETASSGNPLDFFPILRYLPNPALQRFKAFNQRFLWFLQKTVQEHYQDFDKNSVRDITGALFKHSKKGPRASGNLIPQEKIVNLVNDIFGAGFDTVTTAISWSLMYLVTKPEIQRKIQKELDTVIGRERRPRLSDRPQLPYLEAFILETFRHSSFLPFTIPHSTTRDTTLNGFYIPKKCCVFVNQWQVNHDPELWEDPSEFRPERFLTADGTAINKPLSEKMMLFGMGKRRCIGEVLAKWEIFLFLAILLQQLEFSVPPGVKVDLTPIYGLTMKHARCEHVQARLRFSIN
Chain of recombinant human MGAT2 (Q3SYC2 whole entry): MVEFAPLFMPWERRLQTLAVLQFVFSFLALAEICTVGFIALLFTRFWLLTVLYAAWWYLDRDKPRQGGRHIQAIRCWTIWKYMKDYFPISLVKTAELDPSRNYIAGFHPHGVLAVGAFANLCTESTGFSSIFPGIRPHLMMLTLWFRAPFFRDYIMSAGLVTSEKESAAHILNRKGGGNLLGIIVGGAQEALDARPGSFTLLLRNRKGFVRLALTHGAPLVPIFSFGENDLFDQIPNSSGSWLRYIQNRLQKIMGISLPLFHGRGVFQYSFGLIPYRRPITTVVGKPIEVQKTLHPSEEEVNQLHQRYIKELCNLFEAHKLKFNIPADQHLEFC

Row | Structure (SMILES) | IC50 (recombinant human MGAT2) [µM] | Remaining rate [1] [%] | solubility at 16 h [2] [µM] | IC50 (CYP2D6) [µM] | IC50 (CYP1A2) [µM] | IC50 (CYP2C9) [µM] | IC50 (CYP3A4 [3]) [µM] | IC50 (CYP2C19) [µM] | CYP3A4 (MDZ) MBI (Shifted IC judgement) (CYP3A4 [4]) | inhibition at 10 min, 10 μmol/L (hERG (IKr)) [%]
1 | N#Cc1ccc(-c2nn3c(c2NC(=O)c2ccno2)C(=O)N[C@@]2(CCc4cc(OCC(F)(F)F)ccc42)C3)nc1 [Compound I-13] | 0.00193 | 76 |  |  |  |  |  |  |  | 
2 | CS(=O)(=O)CC(=O)Nc1c(-c2ccc(F)cc2)nn2c1C(=O)NC1(CN(c3ccc(C(F)(F)F)cc3)C1)C2 [Compound I-61] | 0.00141 | 95.6 |  |  |  |  |  |  |  | 
3 | CS(=O)(=O)CC(=O)Nc1c(-c2ccc(F)cc2)nn2c1C(=O)N[C@@]1(CCOc3cc(OCC(F)(F)F)ccc31)C2 [Compound I-66] |  | 105 | > 50 | > 20 | > 20 | > 20 | > 20 | > 20 | Negative (a case that Shifted IC was 1.0 or less was regarded as Negative) | 14.6
4 | CS(=O)(=O)CC(=O)Nc1c(-c2ccc(F)cc2)nn2c1C(=O)N[C@]1(CCc3cc(OCC(F)(F)F)ccc31)C2 [Compound I-79] |  | 77.2 | > 50 |  |  |  |  |  |  | 25.5
5 | CS(=O)(=O)CC(=O)Nc1c(-c2ccc(F)c(F)c2)nn2c1C(=O)N[C@@]1(CCc3cc(F)cc(F)c31)C2 [Compound I-130] |  | 94.8 | > 50 | > 20 | > 20 | > 20 | > 20 | > 20 | Negative (a case that Shifted IC was 1.0 or less was regarded as Negative) | 15.4

Second part, led by results:

Row | IC50 (recombinant human MGAT2) [µM] | Remaining rate [1] [%] | solubility at 16 h [2] [µM] | IC50 (CYP2D6) [µM] | IC50 (CYP1A2) [µM] | IC50 (CYP2C9) [µM] | IC50 (CYP3A4 [3]) [µM] | IC50 (CYP2C19) [µM] | Structure (SMILES) | CYP3A4 (MDZ) MBI (Shifted IC judgement) (CYP3A4 [4]) | inhibition at 10 min, 10 μmol/L (hERG (IKr)) [%]
6 |  | 100 | > 50 | > 20 | > 20 | > 20 | > 20 | > 20 | CS(=O)(=O)CC(=O)Nc1c(-c2ccc(F)c(F)c2)nn2c1C(=O)N[C@@]1(CCOc3cc(F)cc(F)c31)C2 [Compound I-126] | Negative (a case that Shifted IC was 1.0 or less was regarded as Negative) | 14.2
7 |  | 89.8 | > 50 | > 20 | > 20 | > 20 | > 20 | > 20 | CS(=O)(=O)CC(=O)Nc1c(-c2ccc(Cl)cn2)nn2c1C(=O)N[C@]1(CCc3cc(F)cc(F)c31)C2 [Compound I-147] | Negative (a case that Shifted IC was 1.0 or less was regarded as Negative) | 21.6
8 |  | 104 | > 50 | > 20 | > 20 | > 20 | > 20 | > 20 | CS(=O)(=O)CC(=O)Nc1c(-c2ccc(Cl)cn2)nn2c1C(=O)N[C@]1(CCOc3cc(F)cc(F)c31)C2 [Compound I-151] | Negative (a case that Shifted IC was 1.0 or less was regarded as Negative) | 25.8
